Some results are limits rather than exact numbers.

The assay has as its system Tetramitus flagellates. Briefly: Microscopic observations of swimming behavior and morphology of Tetramitus flagellates during exposure. It counts as cell-based, Tetramitus rostratus. Particulars: 10 μg/mL.

Take `O=[N+]([O-])c1cc[n+]([O-])c2ccccc12` [4-nitroquinoline-n-oxide]: the “Swarming Behavior” value reads like this: (exposure time 0.5 Hours) “Normal”; (exposure time 0.9 Hours) “Delayed”; (exposure time 8.7 Hours, cell wraps over rows: No Swarming) “No”. The “Swimming Velocity (% Slow)” value is recorded as 10-20% (exposure time 0.5 Hours, cell wraps: 10-20% Slow); 50-70% (exposure time 0.9 Hours, cell wraps: 50-70% Slow); 100% (exposure time 1.6 Hours, cell wraps: 100% Slow); 100% (exposure time 4.5 Hours, cell wraps: 100% Slow). The “Spinner Frequency” value by setting is: (exposure time 0.5 Hours, cells rotating in a circular pattern) less than 1%; (exposure time 0.9 Hours) “˜5%”; (exposure time 1.6 Hours) 5-10%; (exposure time 4.5 Hours) 20%; (exposure time 8.7 Hours) 70-90%. For the same compound, the “Appearance of Larger Morphs” value is 1-5% (exposure time 0.5 Hours, larger cells with abnormally-formed rostrum and large vacuoles); 5-10% (exposure time 0.9 Hours); 10-20% (exposure time 1.6 Hours); 50% (exposure time 4.5 Hours); 100% Rounded cells (exposure time 8.7 Hours, cell wraps: 100% Rounded cells with large vacuoles). Besides, under “exposure time 8.7 Hours”, the “Swimming Velocity” value is on record as “Very Slow”.
